In ChEMBL document CHEMBL4340512, “Discovery of novel triazolo[4,3-b]pyridazin-3-yl-quinoline derivatives as PIM inhibitors” (Eur J Med Chem, 2019):

Experiments:
SK-MEL19 = assay: Antiproliferative activity against human SK-MEL-19 cells incubated for 72 hrs by CellTiter-Glo luminescence assay; format: functional; conditions: SK-MEL19, 72 h
MDA-MB-231 = assay: Antiproliferative activity against human MDA-MB-231 cells incubated for 72 hrs by CellTiter-Glo luminescence assay; format: functional; conditions: MDA-MB-231, 72 h
Raji = assay: Antiproliferative activity against human Raji cells incubated for 72 hrs by CellTiter-Glo luminescence assay; format: functional
JeKo-1 = assay: Antiproliferative activity against human JeKo1 cells incubated for 72 hrs by CellTiter-Glo luminescence assay; format: functional; conditions: JeKo-1, 72 h
MV4-11 = assay: Antiproliferative activity against human MV4-11 cells incubated for 72 hrs by CellTiter-Glo luminescence assay; format: functional; conditions: MV4-11, 72 h
MIA PaCa-2 = assay: Antiproliferative activity against human MIAPaCa2 cells incubated for 72 hrs by CellTiter-Glo luminescence assay; format: functional; conditions: MIA PaCa-2, 72 h
U-87 MG = assay: Antiproliferative activity against human U87MG cells incubated for 72 hrs by CellTiter-Glo luminescence assay; format: functional, U-87MG ATCC
PC-3 = assay: Antiproliferative activity against human PC3 cells incubated for 72 hrs by CellTiter-Glo luminescence assay; format: functional; conditions: PC-3, 72 h
T47D = assay: Antiproliferative activity against human T47D cells incubated for 72 hrs by CellTiter-Glo luminescence assay; format: functional
DU-145 = assay: Antiproliferative activity against human DU145 cells incubated for 72 hrs by CellTiter-Glo luminescence assay; format: functional; conditions: DU-145, 72 h
HCT-116 = assay: Antiproliferative activity against human HCT116 cells incubated for 72 hrs by CellTiter-Glo luminescence assay; format: functional; conditions: HCT-116, 72 h

SMILES	GI50 (SK-MEL19)	GI50 (MDA-MB-231)	GI50 (Raji)	GI50 (JeKo-1)	GI50 (MV4-11)	GI50 (MIA PaCa-2)	GI50 (U-87 MG)	GI50 (PC-3)	GI50 (T47D)	GI50 (DU-145)	GI50 (HCT-116)
CC(=O)c1c(C)c2cnc(Nc3ccc(N4CCNCC4)cn3)nc2n(C2CCCC2)c1=O [PALBOCICLIB]	30 µM	30 µM	30 µM	30 µM	–	–	–	–	–	–	–
CS(=O)(=O)N1CCN(Cc2cc3nc(-c4cccc5[nH]ncc45)nc(N4CCOCC4)c3s2)CC1 [PICTILISIB]	6 µM	12 µM	–	5 µM	3 µM	12 µM	6 µM	3 µM	3 µM	–	–
CS(=O)(=O)CCNCc1ccc(-c2ccc3ncnc(Nc4ccc(OCc5cccc(F)c5)c(Cl)c4)c3c2)o1 [LAPATINIB]	5 µM	20 µM	–	5 µM	10 µM	10 µM	10 µM	–	40 µM	20 µM	20 µM
